# From patent US12636284B2, “Compositions for use in the prevention and/or treatment of intellectual disability and neurodegenerative diseases in a subject with down syndrome” (UNIVERSITA' DEGLI STUDI DI ROMA “LA SAPIENZA”, priority 2021, dated 2026)
# Experiments:
# β-amyloid peptide 1-42 = assay: ELISA Aβ 1-42 in hippocampus; format: in vivo, mouse
# Method: The 3x-Tg mouse, an animal model commonly used for the study of Alzheimer's disease (n=2/group), was used as a positive control for the production of β-amyloid 1-42. Briefly, ˜10 mg of hippocampus was homogenized in DEA buffer (10 μL/mg tissue; 0.2% diethanolamine and 50 mM NaCl) to which the protease inhibitor cocktail (1:100; Millipore) was added. The sample was centrifuged at 15,000 rpm for 1 hour 30 min at 4° C., the supernatant was stored for measuring ß-amyloid 1-42 following the instructions given by the kit manufacturer. The calculations for the quantization of β-amyloid were carried out using GraphPad Prism 8.0 software (GraphPad, La Jolla, CA, USA).
# DYRK1A protein = DYRK1A protein levels in primary hippocampal neurons isolated from Ts2Cje mice; format: cell-based, mouse; settings: 1, 5, 10 μM for 24 hours, vs untreated Ts2Cje
# Method: For Western blots, 20 μg of proteins from the hippocampus of mice belonging to the four experimental groups were separated by 4-15% SDS-PAGE Criterion™ TGX (Tris-Glyicine eXtended) Stain-Free™ (Bio-rad, Hercules, CAUSE). This type of gel allows a rapid acquisition of the protein run in the ultraviolet (UV) by Chemidoc™ MP imaging systems (Bio-rad, Hercules, CA, USA). Therefore, the gel, once the image has been acquired, represents the total of the loaded proteins (Total Load), which will then be used to normalize the specific proteins to be examined. After electrophoresis and gel imaging, proteins are transferred via the semi-dry TransBlot Turbo apparatus (Bio-Rad Laboratories) onto nitrocellulose membranes (Bio-Rad, Hercules, CA, USA). Nitrocellulose membranes are blocked with 3% bovine serum albumin (BSA) in a solution of Tween 20-TBS and incubated overnight at 4° C. using specific primary antibodies: p(T216)-GSK3B (1:1000, Santa Cruz, #sc-135653), p(S9)-GSK3β (1:1000, Cell Signaling, #5558S), GSK3β (1:1000 Abcam, #93926) and DYRK1A (1:1000, Cell Signaling, #8765S), MAPK44/42 (1:1000, Cell Signaling, #9102), p(Thr202/Tyr204)-MAPK44/42 (1 1000, Cell Signaling, #9101), Akt (1:2000, Bio-Rad, # vma00253K), p(S473) Akt (1:1000, Cell Signaling, #4060S). After three washes with a T-TBS buffer solution, membranes were incubated for 1 hour at room temperature with the secondary antibodies. Secondary antibodies with peroxidase activity are anti-mouse or anti-rabbit (1:5000, Bio-rad, Hercules, CA, USA). Membranes were developed using Clarity Enhanced Chemiluminescence (ECL), a chemiluminescent substrate (Bio-rad, Hercules, CA, USA) and acquired with Chemidoc Mp (Bio-rad, Hercules, CA, USA). Finally, the results obtained were analyzed using the ImageLab program (Bio-rad, Hercules, CA, USA).
# In order to isolate primary hippocampal neurons, hippocampi from Ts and euploid mice were mechanically dissociated in PBS (with Ca^2+ and Mg^2−) and centrifuged (3 minutes, 1100 rpm, 25° C.). […]
# [1] = Glucose tolerance test (GTT) at end of treatment; format: in vivo, mouse; settings: Ts2Cje mice; sitagliptin 5 mM intranasal, 21 days; 6 h fasting, i.p. glucose 10%
# Method: Finally, animals were sacrificed using cervical dislocation.
# Furthermore, mice were measured at the beginning and at the end of the treatment to evaluate the length in centimeters (cm). For calculating the body mass surface, the DuBois equation was used: body surface area (m^2)=0.007184×weight ([…])×height ([…]). The body mass index was calculated as the ratio between weight and BSA (gr/m^2). At the end of the treatment, the glucose tolerance test (GTT) was carried out on the four experimental groups. After a fasting period of 6 hours, the animals' basal blood glucose was assessed with a small blood sample from the tail (T0). Subsequently, the same animals were treated with a glucose solution (10%, intraperitoneal injection) and blood glucose was measured with a glucometer (lineD ORO, Bioseven) after 30-60-90-120 minutes.
smiles,measurement,setting,value
"N[C@@H](CC(=O)N1CCn2c(nnc2C(F)(F)F)C1)Cc1cc(F)c(F)cc1F [sitagliptin, (R)-4-oxo-4-[3-(trifluoromethyl)-5,6-dihydro[1,2,4]triazole[4,3-a]pyrazin-7(8H)-yl]-1-(2,4,5-trifluorophenyl)butan-2-amine]",Ab (beta-amyloid 1-42) levels,β-amyloid peptide 1-42,reduction
same,levels of the DYRK1A protein in Ts2Cje neurons,DYRK1A protein,significant reduction
same,changes in glucose metabolism indices (GTT),[1],no phenotypic or morphometric changes or changes in glucose metabolism indices
